Consider seven molecules from patent US20230293521A1, “METHODS FOR SCREENING NOVEL CORONAVIRUS ANTIVIRALS AND METHODS OF USING ANTIVIRALS FOR THE TREATMENT OF CORONAVIRUS INFECTIONS” (priority 2020, published 2023).

Molecules are shown by their SMILES. Where two headings read alike, the source gives them in different places.

The subject of the test is SARS-CoV-2. Put plainly: Impedance-based (Maestro Z resistance/TEER) assay of SARS-CoV-2 cytopathic effect in Vero E6 monolayers. It counts as cell-based. As to conditions: for inhibitory activity against SARS-CoV-2 (percent inhibition relative to DMSO control): Vero E6, serial half-log dilutions, MOI 0.01, 48 hours; for IC90: Vero E6, MOI 0.01, normalized resistance at 48 hpi; for IC50: Vero E6, pre-treated 1 hour, MOI 0.01, normalized resistance at 48 hpi.

The mark [1] stands for this setting: Severe acute respiratory syndrome coronavirus 2, Vero C1008.
[2] abbreviates: Severe acute respiratory syndrome coronavirus 2, Vero C1008, non-toxic doses, read-out: estimated IC50.

As for `CCCCCCCCCCC[C@@H](C[C@@H]1OC(=O)[C@H]1CCCCCC)OC(=O)[C@H](CC(C)C)NC=O` [Orlistat], the “completeness of inhibition of viral cytopathic effects” value (with 500 µM, Vero E6) is recorded as “complete inhibition was not achieved”.

With `CS(=O)(=O)O.O=C([C@@H]1CCCN(c2ccc3[nH]c(C4(n5cc(Cl)cn5)CC4)nc3n2)C1)N1CCCC1` [PF06424439], the “inhibitory activity against SARS-CoV-2 (percent inhibition relative to DMSO control)” value is recorded as “Neither compound displayed any inhibitory activity”.

Usually IC90 stands for the concentration needed for an effect of 90%. Under setting [1], `Nc1ncc(-c2ccnc(Nc3ccncc3)n2)c(CC2CC2)n1` [PIK-III] displayed an IC90 of 1810 nM. For the same molecule, the IC50 under setting [2] was less than 600 nM.

For the molecule `CCC(CC)COC(=O)[C@H](C)N[P@](=O)(OC[C@H]1O[C@@](C#N)(c2ccc3c(N)ncnn23)[C@H](O)[C@@H]1O)Oc1ccccc1` [Remdesivir], the IC50 (Severe acute respiratory syndrome coronavirus 2, Vero C1008, read-out: 50% inhibitory concentration (IC50)) came to 1540 nM.

For the molecule `CC1(C)Oc2ncnc(N)c2N=C1c1ccc([C@H]2CC[C@H](CC(=O)O)CC2)cc1` [T863], the “inhibitory activity against SARS-CoV-2 (percent inhibition relative to DMSO control)” value was “Neither compound displayed any inhibitory activity”.

On to `CCC/C=C/C/C=C/C=C/C=N/NN=O` [Triacsin C], for which the IC50 (read-out: 50% inhibitory concentration (IC50)) is approximately 20000 nM.

`CC(C)(O)CNc1ncc(-c2ccnc(Nc3ccncc3)n2)c(CC2CC2)n1` [VPS34-IN1]: it took 2520 nM to reach the 90% level under setting [1] (IC90). In addition, under setting [2], the IC50 is less than 600 nM.
